Measured values from US20260306421A1, “SYSTEMS AND METHODS FOR TRANSDERMAN PATCH DELIVERY” (VITAMAX PATCH WHOLESALER LLC, priority 2022, published 2026).
Marks after values point to notes of the source that are not given here.

Tests used:
[1] = Cholecalciferol phosphate adhesive suitability / compatibility screen; type: physicochemical
Description: Pre-formulation studies were performed to determine the compatibility of cholecalciferol phosphate (disodium and acid forms) with a range of adhesives (Table 38) that could be used to manufacture of the patch. The compatibility of the drugs with the patch excipients was assessed through checking the clarity of the mixture.
The compatibility of the adhesive with solvents and drug was established. The maximum drug loading in the adhesive following solvent evaporation was determined by mixing the drug, adhesive and co-solvents until a clear solution is obtained at different drug:adhesive ratios by placing a drop of solution onto patch backing sheet, leaving the slide to dry for 3-4 hours and examining the formed fil on the surface of the backings for evidence of drug crystals were assessed using KKmoon digital magnifier with LED light (China). Following patch optimization, the drug-adhesive solution was cast as 10×10 cm squares using of backing (3M™ Scotchpak™ Polyester Backing Film Laminate 9730). A sufficient volume of the adhesive was applied to achieve a target coating of 8 mg/cm^2. Following complete drying of the solvents, the adhesive layer was covered by M3 Release liner (SCOTCHPAK 9755), compressed, and then cut using 34 mm circular manual die cutter (SCP Super Cutting Press).

[2] = Solubility of cholecalciferol and cholecalciferol phosphate (disodium, acid); type: physicochemical; settings: visual solubility
Description: Aliquots of cholecalciferol, cholecalciferol phosphate disodium, and cholecalciferol phosphate acid were added to a range of solvents including propylene glycol (PG), distilled water, methanol, ethyl acetate, ethanol, n-hexane, and the visual solubility was determined. A precise assessment of the saturation solubility was for some of the solvent systems was made using high-performance liquid chromatography (HPLC). In the HPLC solubility studies, an excess of each solute was added into 2 mL of each test solvent. The solutions were left stirring overnight at room temperature, (RT), 22° C. The saturation of the solutions was confirmed by the visual appearance of crystals and the drug suspensions were filtered through 0.2 μm cellulose acetate syringe filters, diluted with excess of mobile phase, and the solute concentration of each sample was assessed using HPLC.

[3] = Chemical stability of cholecalciferol phosphate acid in skin permeation solvents; type: physicochemical; settings: 24 h, 37° C.
Description: To assess the chemical stability of the cholecalciferol phosphate acid in the solutions employed in the skin permeation experiments a 1 mg/mL solution of cholecalciferol phosphate acid in propylene glycol (PG) was prepared and incubated at 37° C. for 24 hours. In addition 100 μg/mL cholecalciferol phosphate acid in 90:10 methanol:water and in 80:20 PG:water were also incubated at 37° C. for 24 hours. The concentration pre and post incubation was compared to determine the chemical stability during the permeation studies.

[4] = Iron adhesive patch skin permeation and deposition; type: in vitro ADME, porcine; settings: t-test p value, 0.5
Description: To perform the skin permeation studies, dermatomed skin (1 mm) was glued onto the receiver compartment of the Franz cell that contained 80:20 PG:water. A zero hour sample was taken from the receiver fluid, the patches were placed on top of the skin and held in place by a small weight (8.75 g). The patches that were tested were A2, A3, A4 (Table 16) as well as the existing commercial iron transdermal patch. After 24 hours, the receiver fluid was assayed using the quantitative iron assay and a compatible calibration in the same medium (80:20 PG:water) was used. The skin deposition was determined by removing the dermatomed skin from the donor compartment when the 24 h was completed, chopping into smaller pieces using scissors and incubating with the extraction fluid, ethanol. The samples were then transferred to Eppendorf tubes containing one stainless steel 5 mm bead and loaded into the TissuLyser II (Qiagen, Germany) for 30 min 30 Hz. The samples were centrifuged (5 min at 13,000 rpm) and supernatant assayed for iron content.

[5] = Iron complex adhesive compatibility and loading screen; type: physicochemical
[6] = Solubility of iron chloride hexahydrate and iron complexes (visual / assayed); type: physicochemical; settings: visual (*)
In short: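 Visual screen across solvents, then quantitation with excess complex by one of three incubations: 48 h shaking at 37 °C, 2 h sonication at 40 °C, or overnight at 50 °C. Iron in the supernatant after centrifugation was measured by Ferrozine assay.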

[7] = Iron complex reservoir solvent solubility screening; type: physicochemical; settings: Span 80, SDS, Tween 80 and Kolliphore EL
[8] = drug loading 4%, no permeation enhancer
[9] = drug loading 8%, no permeation enhancer
[10] = drug loading 10%, 5.5 mg Transcutol
[11] = drug loading 10%, no permeation enhancer

C=C1CCC(OP(=O)(O)O)CC1=CC=C1CCCC2(C)C1CCC2C(C)CCCC(C)C (stereo not drawn) [Cholecalciferol phosphate acid, cholecalciferol phosphate acid]
Solubility ([1]; DURO-TAK 87-2052 0.268 mL, 10 mg drug, 0.5 mL hexane, 0.4 mL ethyl acetate): Clear | Solubility ([1]; DURO-TAK 87-9301 100 mg, 5 mg drug, 5 mg dodecyl amine, 0.5 mL methanol, 0.25 mL ethyl acetate): Clear | Solubility ([1]; Duro-TAK 87-2516 100 mg, 10 mg drug, 10 mg dodecyl amine, 0.5 mL methanol, 0.5 mL ethyl acetate): Clear | Solubility ([1]; Duro-TAK 87-2516 100 mg, 10 mg drug, 10 mg dodecyl amine, 1 mL methanol, 1.25 mL ethyl acetate): Clear | Solubility ([1]; Duro-TAK 87-2516 100 mg, 10 mg drug, 10 mg dodecyl amine, 1.5 mL methanol, 1 mL ethyl acetate): Clear | Solubility ([1]; Oppanol B12 1.2 g, 65 mg drug, 15.9 mL hexane): Clear | Solubility ([1]; Oppanol B12 1.2 g, 65 mg drug, 15.9 mL hexane, 65 mg dodecyl amine): Clear | Solubility ([1]; Oppanol B12 2.3 g, 130 mg drug, 32 mL hexane): Clear | compatibility with adhesives and organic solvents ([1]; Oppanol B12, DURO-TAK 87-2516, 87-9301 and 87-2052): showed compatibility | Solubility ([2]; solvent Ethanol): ~4* mg/mL | Solubility ([2]; solvent Ethyl acetate): <0.1* mg/mL | Solubility ([2]; solvent Hexane): ~40* mg/mL | Solubility ([2]; solvent Methanol (0.1% TFA)): <0.1* mg/mL | Solubility ([2]; solvent PG): ~10* mg/mL | stability in donor, extraction and receiver solvent [3]: appropriate stability

O=c1cc(CO)occ1[O-].O=c1cc(CO)occ1[O-].O=c1cc(CO)occ1[O-].[Fe+3] [Iron kojic, iron kojic acid]
deposition compared to existing commercial iron transdermal patch [4]: no significant difference | compatibility with adhesives [5]: only compatible with DURO-TAK 9301 | Solubility in DURO-TAK 9301 patch ([5]; drug loading 4%, 2 mg PG): Clear | Solubility in DURO-TAK 9301 patch [5, 8]: Clear | Solubility in DURO-TAK 9301 patch ([5]; drug loading 7%, 8 mg Maltol): Precipitated | Solubility in DURO-TAK 9301 patch ([5]; drug loading 7.5%, 4 mg PG): Precipitated | Solubility in DURO-TAK 9301 patch [5, 9]: Precipitated | Solubility in DURO-TAK 9301 patch ([5]; drug loading 10%, 5.5 mg PG): Precipitated | Solubility in DURO-TAK 9301 patch [5, 10]: Precipitated | Solubility in DURO-TAK 9301 patch [5, 11]: Precipitated | (maximum) complex loading achieved in adhesive ([5]; methanol stock solution 10 mg/mL): 4% | complex loading achieved in adhesive patch ([5]; methanol stock solution 18 mg/mL): 8.5% | Solubility of complex (visual) ([6]; Chloroform): <6 mg/mL Iron kojic* | Solubility of complex (visual) ([6]; Ethyl acetate): <6 mg/mL Iron kojic* | Solubility of complex (visual) ([6]; Glycerol): <6 mg/mL Iron kojic* | Solubility of complex (visual) ([6]; Hexane): <6 mg/mL Iron kojic* | Solubility of complex (visual) ([6]; Methanol): ≥18 mg/mL Iron kojic* | Solubility of complex (visual) ([6]; Oleic acid): <6 mg/mL Iron kojic* | Solubility of complex (visual) ([6]; PEG400): <6 mg/mL Iron kojic* | Solubility of complex (visual) ([6]; PG): ≥8 mg/mL Iron kojic* | Solubility of complex (visual) ([6]; Propanol): <6 mg/mL Iron kojic* | Solubility of complex (visual) ([6]; Transcutul): ≥ 8 mg/mL Iron kojic* | Solubility of complex (visual) ([6]; Triaceten): <6 mg/mL Iron kojic*

Cc1occc(=O)c1[O-].Cc1occc(=O)c1[O-].Cc1occc(=O)c1[O-].[Fe+3] [Iron maltol made at pH 7.4, iron maltol]
Solubility in DURO-TAK 9301 patch ([5]; drug loading 4%, 2 mg PG): Clear | Solubility in DURO-TAK 9301 patch [5, 8]: Clear | Solubility in DURO-TAK 9301 patch ([5]; drug loading 6%, no permeation enhancer): Precipitated | Solubility in DURO-TAK 9301 patch ([5]; drug loading 7%, 8 mg Maltol): Precipitated | Solubility in DURO-TAK 9301 patch ([5]; drug loading 7.5%, 4 mg PG): Precipitated | Solubility in DURO-TAK 9301 patch [5, 9]: Precipitated | Solubility in DURO-TAK 9301 patch ([5]; drug loading 10%, 5.5 mg PG): Precipitated | Solubility in DURO-TAK 9301 patch [5, 10]: Precipitated | Solubility in DURO-TAK 9301 patch [5, 11]: Precipitated | visual solubility [7]: ≤ 32 mg/mL | Solubility of complex (visual) ([6]; PEG400): <20 mg/mg/mL | Solubility of complex (visual) ([6]; PG): ≥20 mg/mg/mL | Solubility of complex (visual) ([6]; Transcutul): <20 mg/mg/mL
